# Like-named read-outs stand apart in the source and are kept apart here.
# Experiments:
# S. aureus CCM 4516 = assay: Microdilution broth MIC; type: cell-based; conditions: Staphylococcus aureus
# Experimental: (§1) In vitro antibacterial activity of the prepared amp-DDNs (DnP6-1C12, DnP3-1C12, DnP3-2C12, and DnP3-2C18) was tested on a panel of four G+ (Staphylococcus aureus CCM 4516, methicillin-resistant S. aureus clinical isolate C1923, Staphylococcus epidermidis clinical isolate C1936, and vancomycin-resistant Enterococcus faecium clinical isolate S2484) and four G-bacterial strains (Escherichia coli K12, CCM 7929, E. coli clinical isolate A1235, extended-spectrum β-lactamase-producing (ESBL+) Klebsiella pneumoniae clinical isolate C1914, and multiresistant Pseudomonas aeruginosa clinical isolate A1245). CCM collection strains were obtained from the Czech Collection of Microorganisms. All clinical isolates were obtained during routine procedures in the clinical laboratory at the University Hospital Hradec Králové. All strains were stored at −70 °C in the Cryobank according to the manufacturer’s instructions. Subsequently, when needed, each bacterial strain was inoculated and cultivated on Mueller–Hinton agar (HiMedia, Cadersky-Envitek, Prague, Czech Republic).
# (§2) The antibacterial susceptibility was determined by a microdilution broth method according to standard M07-A10,[55] and the optimized protocol has been published previously.[56],[57] Briefly, Mueller–Hinton broth (MHB) adjusted to pH 7.4 (±0.2) was used as the test medium. […] The wells of the microdilution tray contained 200 μL of the MHB with 2-fold serial dilutions of the compounds and were inoculated with 10 μL of the bacterial suspension. The bacterial suspensions were controlled densitometrically to reach 1.5 × 10^8 viable CFU per 1 mL. The minimum inhibitory concentration (MIC) values, defined as 95% inhibition of bacterial growth, were determined after 24 h of incubation at 35 °C ± 1 °C.
# E. coli K12, CCM 7929 = assay: Microdilution broth MIC; type: cell-based; conditions: Escherichia coli
# Experimental: as §1, §2
# [1] = system: S. epidermidis—clinical isolate C1936; assay: Microdilution broth MIC; type: cell-based; conditions: Staphylococcus epidermidis, 24 h
# Experimental: as §1, §2
# [2] = system: E. coli—clinical isolate A1235; assay: Microdilution broth MIC; type: cell-based; conditions: Escherichia coli, 24 h
# Experimental: as §1, §2
# [3] = system: E. faecium VRE—clinical isolate S2484; assay: Microdilution broth MIC; type: cell-based; conditions: Enterococcus faecium, 24 h
# Experimental: as §1, §2
# [4] = system: K. pneumoniae ESBL+—clinical isolate C1914; assay: Microdilution broth MIC; type: cell-based; conditions: Klebsiella pneumoniae, 24 h
# Experimental: as §1, §2
# [5] = system: P. aeruginosa MR—clinical isolate A1245; assay: Microdilution broth MIC; type: cell-based; conditions: Pseudomonas aeruginosa, 24 h
# Experimental: as §1, §2
# [6] = system: anti-miR-21 oligo(2′-O-methylribonucleotide); assay: DLS of dendriplexes with anti-miR-21 oligonucleotide; type: physicochemical; conditions: for mean diameter of dendriplex: 0.9% NaCl
# Experimental: Dendriplexes were characterized by DLS using Zetasizer Nano-S (Malvern Panalytical, UK) equipped with a 632.8 nm laser, applying detection angle 173°. Mean diameters from the intensity-weighted size distribution are given. Average results from three consecutive sets of measurements generated by Malvern Zetasizer Software version 7.13 are presented.
# Amphiphilic dendrons (1.5–73 μM) were mixed with the anti-miR-21:5′-m([…]) (500 nM) in 0.9% NaCl solution in milli-Q water. The dendrons’ concentrations were chosen to attain the charge ratio (CR, the ratio of cations over anions in the sample) of 1.2, 2.5, 5, 10, or 20. The samples were incubated for 15 min at rt prior to measurements.
# [7] = system: S. aureus MRSA—clinical isolate C1926; assay: Microdilution broth MIC; type: cell-based; conditions: Staphylococcus aureus, 24 h
# [8] = Dynamic light scattering (DLS/MADLS) of micelles in physiological solution; type: physicochemical
# Experimental: The size of micelles and micellar aggregates was estimated by the dynamic light scattering (DLS) method using NanoBrook OMNI ZetaPALS (Brookhaven Instruments, USA) with a detection angle 90° and 640 nm laser. The presented diameters are mean values from the intensity-weighted size distribution. The composition of the samples was as follows: dendron (1.0 mM) and NaCl (0.9%) in deionized water. The solutions were sonicated for 30 min, filtered through 0.45 μm Nylon syringe filters (Avantor, USA), placed in standard polystyrene cuvettes (BI-SCP, Brookhaven Instruments), and stored at 4 °C. All measurements were conducted at 25 °C. Measurement time was set to 5 min, and each measurement was repeated 5 times. The analysis of data was performed using Brookhaven Instruments software Particle Solutions v3.6.07136.
# MADLS and size dependence on concentration and pH were measured on Zetasizer Ultra Red (Malvern Panalytical, UK) equipped with a 632.8 nm laser, applying detection angles 12.78°, 90°, and 174.7° in the case of MADLS measurements and 12.78° for size dependence measurements. MADLS and concentration dependence were measured in DTS0012 polystyrene cuvettes (Malvern Panalytical, UK); pH dependence was studied by acidobasic titration in DTS1070 folded capillary Zeta cell, using MPT-3 Multipurpose Titrator and DEG0003 Auto Degasser (all Malvern Panalytical, UK). The concentration dependence measurement started at 1.0 mM and the samples were diluted 2-fold until the minimum concentration 0.06 mM. For each concentration, the measurement was repeated 3 times giving 15 measurements in total. The pH dependence measurement started at pH 12; the titration was performed with a step of 2 and at each step, the measurement was repeated 3 times, giving 18 measurements in total. Malvern Panalytical software ZS Xplorer version 3.3.1.5 was used for the analysis of data.
# [9] = 95% inhibition of growth, read-out: MIC
smiles,measurement,setting,value
CCCCCCCCCCCCCCCCCCNC(=O)c1cc(OCCC[Si](CCCSCC(=O)NCCC[P+](c2ccccc2)(c2ccccc2)c2ccccc2)(CCCSCC(=O)NCCC[P+](c2ccccc2)(c2ccccc2)c2ccccc2)CCCSCC(=O)NCCC[P+](c2ccccc2)(c2ccccc2)c2ccccc2)cc(C(=O)NCCCCCCCCCCCCCCCCCC)c1 [DnP3-2C18],MIC,"S. aureus CCM 4516; CCM4516, 24 h",> 12.5 µM
same,MIC,"E. coli K12, CCM 7929; CCM7929, 24 h",> 12.5 µM
same,MIC,[1],> 12.5 µM
same,MIC,[2],> 12.5 µM
same,MIC,[3],> 12.5 µM
same,MIC,[4],> 12.5 µM
same,MIC,[5],> 12.5 µM
same,PI of dendriplex,[6]; CR 1.2,0.12
same,mean diameter of dendriplex,"[6]; CR 1.2, anti-miR-21 500 nM",0.20 μm
same,PI of dendriplex,[6]; CR 2.5,0.2
same,mean diameter of dendriplex,"[6]; CR 2.5, anti-miR-21 500 nM",0.9 μm
same,PI of dendriplex,[6]; CR 5,0.3
same,mean diameter of dendriplex,"[6]; CR 5, anti-miR-21 500 nM",> 1 μm
same,PI of dendriplex,[6]; CR 10,0.23
same,mean diameter of dendriplex,"[6]; CR 10, anti-miR-21 500 nM",0.22 μm
same,PI of dendriplex,[6]; CR 20,0.29
same,mean diameter of dendriplex,"[6]; CR 20, anti-miR-21 500 nM",0.17 μm
same,MIC,[7],> 12.5 µM
same,PDI,"[8]; 1.0 mM dendron, 0.9% NaCl",≈ 0.2
same,"mean size (DLS, intensity-weighted)","[8]; 1.0 mM dendron, 0.9% NaCl, 25 °C, start of testing period",14 nm
same,"mean size (DLS, intensity-weighted)","[8]; 1.0 mM dendron, 0.9% NaCl, after 75 day testing period, stored at 4 °C",26 nm
same,mean size of the second population (MADLS),[8]; aggregates,80 nm
same,mean diameter of the smaller particles (MADLS),[8]; isolated micelles,11.8 nm
CCCCCCCCCCCCCCCCCCNC(=O)c1cc(OCCC[Si](CCCSCC(=O)NCCC[P+](c2ccccc2)(c2ccccc2)c2ccccc2)(CCCSCC(=O)NCCC[P+](c2ccccc2)(c2ccccc2)c2ccccc2)CCCSCC(=O)NCCC[P+](c2ccccc2)(c2ccccc2)c2ccccc2)cc(OCCC[Si](CCCSCC(=O)NCCC[P+](c2ccccc2)(c2ccccc2)c2ccccc2)(CCCSCC(=O)NCCC[P+](c2ccccc2)(c2ccccc2)c2ccccc2)CCCSCC(=O)NCCC[P+](c2ccccc2)(c2ccccc2)c2ccccc2)c1 [DnP6-1C18],MIC,"S. aureus CCM 4516; CCM4516, 24 h",6.25 µM
same,MIC,"E. coli K12, CCM 7929; CCM7929, 24 h",> 6.25 µM
same,MIC,[1],6.25 µM
same,MIC,[2],> 6.25 µM
same,MIC,[3],6.25 µM
same,MIC,[4],> 6.25 µM
same,MIC,[5],> 6.25 µM
same,PI of dendriplex,[6]; CR 1.2,0.05
same,mean diameter of dendriplex,"[6]; CR 1.2, anti-miR-21 500 nM",0.18 μm
same,PI of dendriplex,[6]; CR 2.5,0.3
same,mean diameter of dendriplex,"[6]; CR 2.5, anti-miR-21 500 nM",> 1 μm
same,PI of dendriplex,[6]; CR 5,0.3
same,mean diameter of dendriplex,"[6]; CR 5, anti-miR-21 500 nM",> 1 μm
same,PI of dendriplex,[6]; CR 10,0.3
same,mean diameter of dendriplex,"[6]; CR 10, anti-miR-21 500 nM",> 1 μm
same,MIC,[7],6.25 µM
CCCCCCCCCCCCCCCCCCNC(=O)c1ccc(OCCC[Si](CCCSCC(=O)NCCC[P+](c2ccccc2)(c2ccccc2)c2ccccc2)(CCCSCC(=O)NCCC[P+](c2ccccc2)(c2ccccc2)c2ccccc2)CCCSCC(=O)NCCC[P+](c2ccccc2)(c2ccccc2)c2ccccc2)cc1 [DnP3-1C18],MIC,"S. aureus CCM 4516; CCM4516, 24 h, 95% inhibition of growth, read-out: MIC",6.25 µM
same,MIC,"E. coli K12, CCM 7929; CCM7929, 24 h, 95% inhibition of growth, read-out: MIC",> 6.25 µM
same,MIC,[1]; [9],3.13 µM
same,MIC,[2]; [9],> 6.25 µM
same,MIC,[3],6.25 µM
same,MIC,[4],> 6.25 µM
same,MIC,[5],> 6.25 µM
same,PI of dendriplex,[6]; CR 1.2,0.14
same,mean diameter of dendriplex,"[6]; CR 1.2, anti-miR-21 500 nM",0.23 μm
same,PI of dendriplex,[6]; CR 2.5,0.2
same,mean diameter of dendriplex,"[6]; CR 2.5, anti-miR-21 500 nM",0.5 μm
same,PI of dendriplex,[6]; CR 5,0.4
same,mean diameter of dendriplex,"[6]; CR 5, anti-miR-21 500 nM",> 1 μm
same,PI of dendriplex,[6]; CR 10,0.3
same,mean diameter of dendriplex,"[6]; CR 10, anti-miR-21 500 nM",> 1 μm
same,MIC,[7],6.25 µM

# Source: article PMC11632778, “Adaptive Synthesis, Supramolecular Behavior, and Biological Properties of Amphiphilic Carbosilane-Phosphonium Dendrons with Tunable Structure” (Biomacromolecules, 2024)
